Results on two substances are retold here after US20060116325A1, “Methods and compositions for inhibiting hiv-coreceptor interactions” (priority 2001, published 2006).

For one assay, the target named is CCR5 (Homo sapiens, UniProt P51681). The assay can be described thus: Competition with 125I-MIP-1β binding to SupT1/CCR5 cells. The arrangement: expressed in transfected cells; host or cells: Sup-T1. Particulars: room temperature, 0.1% sodium azide, FIG. 7A. How it is done: (§1) FIGS. 7A through 7C depicts the inhibition of chemokine receptor ligand binding by peptide pre-treatment. FIG. 7A. Effect of pre-treatment with peptides 15K and 15D on the binding of MIP-1β to SupT1/CCR5 cells; FIG. 7B. Effect of pre-treatment with peptides 15K and 1SD on the binding of SDF-1α to CEMx174 cells; and FIG. 7C. Effect of pre-treatment with 15K and control peptide 15GIG on the binding of SDF-1α to CEmx174 cells. Binding studies were performed as described in Materials and Methods.
Sequence of CCR5 (P51681 whole entry): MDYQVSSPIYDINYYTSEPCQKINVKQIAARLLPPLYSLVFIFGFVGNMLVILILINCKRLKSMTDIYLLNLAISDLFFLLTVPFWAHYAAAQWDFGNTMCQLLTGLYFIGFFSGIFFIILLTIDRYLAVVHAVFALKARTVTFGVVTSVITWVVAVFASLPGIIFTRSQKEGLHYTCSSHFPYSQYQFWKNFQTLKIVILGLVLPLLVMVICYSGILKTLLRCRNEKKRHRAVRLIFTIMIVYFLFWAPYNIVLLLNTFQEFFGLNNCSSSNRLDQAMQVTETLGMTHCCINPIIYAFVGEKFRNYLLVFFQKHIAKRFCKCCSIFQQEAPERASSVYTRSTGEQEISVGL
Binding assays were performed with HEK-CCR5 or HEK CXCR4 in triplicate by adding unlabeled competitor (anti-coreceptor binding peptide or control chemokine) and radiolabeled chemokine, 0.2 ng/ml (^125I-MIP-1β or SDF-1α, specific activity 2000 Ci/mmol, NEN Life Science Products) to a cell suspension (4×10^5 cells in 200 μl) in RPMI 1640 supplemented with 1% bovine serum albumin and 25 mM HEPES pH 8.0 (binding medium). […] The supernatant was aspirated and the cell-associated radioactivity was measured using a 1272 Wallac gamma counter. […] After incubation cells were transferred to the tubes containing 800 μl of 10% sucrose in PBS and harvested by centrifugation, the supematant was aspirated and the cell-associated radioactivity was measured using a 1272 Wallac gamma counter. The data were analyzed by nonlinear regression using the computer program GraphPad Prizm 3.0. […]

Assay [1] concerns the target T1, CXCR4 (Homo sapiens, UniProt P61073). The assay can be described thus: Binding of anti-CXCR4 antibody 12G5 to CEMx174 cells (flow cytometry). Particulars: for inhibition of 12G5 antibody binding to CXCR4: CEMx174 cells, preincubation 60 min 22° C., FIG. 5. On the set-up: host or cells: CEMx174 (174xCEM). The method, then:
FIG. 5A. Dose dependent effect of peptide 15K in comparison with SDF-1α. FIG. 5B. The comparison of the effects of 15K and 15D. FIG. 5C. The comparison of the effects of 15K and 15KS. Cells were preincubated at 22° C. with peptides at designated concentrations of SDF-1α for 60 min. Then cells were incubated with FITC-labeled anti-human CXCR4 monoclonal antibodies 12G5 for 40 min at 22° C. and washed with FACS buffer prior to flow cytometry.
CEMx174 cells were pelleted and resuspended at 10^6 cells/ml in PBS containing 1% BSA and 0.1% sodium azide (FACS buffer). Cells were then preincubated with designated concentrations of peptides or SDF-1-α (1 μg/ml) at 22° C. for 60 min. FITC-labeled anti-human CXCR4 antibody (clone 12G5, BD PharMingen, San Diego, Calif.) was added to the cells per the manufactures instructions and further incubated at 22° C. for 40 minutes. Cells were extensively washed with FACS buffer and analyzed using a FACS Calibur flowcytometer (Becton Dickinson). HEK/CCR5 cells were suspended in Dulbecco's PBS containing 1% FCS and 0.05% NaN3 (10^4 cells in 100 μl) and incubated with or without 5 μg of MIP-1β (PeproTech, Rocky Hill, N.J.), 0.1 mM peptide 15D or 15K for 45 min at 22° C. Cells were then treated with FITC-conjugated anti-human CCR5 antibody (2D7; BD PharMingen, San Diego, Calif.), and incubated for 30 min at 22° C. Cells were washed twice, and analyzed using a FACScan flow cytometer (Becton Dickinson Immunocytometry Systems, San Jose, Calif.).
To determine if peptides 15D and 15K interact directly with chemokine receptors the effect of these and control peptides on the binding of anti-chemokine receptor antibodies to CXCR4 and CCR5 was studied. The monoclonal antibody 12G5 recognizes a conformational extracellular epitope on CXCR4. This antibody blocks the infectivity of some X4 strains of HIV-1 and HIV-2 (Endres et al., Cell 87:745-756, 1996; Hoxie et al., J. Reprod. Immunol. 41:197-211(1998); McKnight et al., J. Virol. 74:1692-1696(1997), 19, 26). […] Further, the binding of 12G5 to CXCR4 receptor-expressing cells is prevented by anti-HIV compounds. […] 73:2752-2761, 1999. To determine the importance of the particular amino acid sequence of the inhibitory activity of the peptides. The effects of peptide 15K and the corresponding scrambled peptide 15KS on binding of 12G5 to CXCR4 was compared. […] Apparently there is a direct correlation between the ability of 15K to inhibit the anti-CXCR4 antibody binding and its ability to inhibit HIV-1 infectivity since the scrambled peptide 15KS with the same amino acid comparison has reduced ability to manifest both these activities.
A general note: In flow cytometry, cells or beads pass a laser one at a time.

Assay [2] deals with T1, CXCR4. In words: Competition with 125I-SDF-1α binding to CEMx174 cells. Particulars: room temperature, 0.1% sodium azide, FIG. 7B, 7C. On the set-up: host or cells: CEMx174 (174xCEM). How it is done: as §1
Binding assays were performed with HEK-CCR5 or HEK CXCR4 in triplicate by adding unlabeled competitor (anti-coreceptor binding peptide or control chemokine) and radiolabeled chemokine, 0.2 ng/ml (^125I-MIP-1β or SDF-1α, specific activity 2000 Ci/mmol, NEN Life Science Products) to a cell suspension (4×10^5 cells in 200 μl) in RPMI 1640 supplemented with 1% bovine serum albumin and 25 mM HEPES pH 8.0 (binding medium). Cells were then incubated at 22° C. for 40 min with continuous rotation. After incubation cells were transferred to the tubes containing 800 μl of 10% sucrose in PBS and harvested by centrifugation. The supernatant was aspirated and the cell-associated radioactivity was measured using a 1272 Wallac gamma counter. Binding assays were performed with the 174xCEM and Sup-T1 cells expressing CCR5 in duplicates by adding unlabeled competitor (peptide or control chemokine) and radiolabeled chemokine, 0.2 ng/ml (^125I-MIP-1β or ^125I-SDF-1α, specific activity 2000 Ci/mmol, NEN life Science Products) to 300 μl cell suspension (4×10^6 cells/ml) in RPMI 1640 supplemented with 1% bovine serum albumin, 0.1% sodium azide and 25 mM HEPES pH 8.0 (binding medium). Cells were then incubated at 22° C. for 30 min with continuous rotation. After incubation cells were transferred to the tubes containing 800 μl of 10% sucrose in PBS and harvested by centrifugation, the supematant was aspirated and the cell-associated radioactivity was measured using a 1272 Wallac gamma counter. The data were analyzed by nonlinear regression using the computer program GraphPad Prizm 3.0. […]

T1 sequence (P61073 whole entry): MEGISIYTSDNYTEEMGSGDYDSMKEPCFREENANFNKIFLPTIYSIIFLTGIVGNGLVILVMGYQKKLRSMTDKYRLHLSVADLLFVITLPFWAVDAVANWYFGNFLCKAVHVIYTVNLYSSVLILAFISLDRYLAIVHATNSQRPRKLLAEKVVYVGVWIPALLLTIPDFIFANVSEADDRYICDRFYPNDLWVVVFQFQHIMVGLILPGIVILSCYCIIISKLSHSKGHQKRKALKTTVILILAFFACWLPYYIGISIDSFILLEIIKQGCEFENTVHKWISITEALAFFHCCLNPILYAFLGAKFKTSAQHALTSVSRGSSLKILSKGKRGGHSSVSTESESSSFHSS

As to “I R K A H C N I S R A D W N D [Peptide 15D]”, the “inhibition of MIP-1β binding to CCR5” value on CCR5 is recorded as “competitively inhibited chemokine binding”. Also, the “inhibition of 12G5 antibody binding to CXCR4” value at CXCR4 [1] was “less effective”. In addition, the “inhibition of SDF-1α binding to CXCR4” value at CXCR4 [2] is “competitively inhibited chemokine binding”.
On to IRKAHCNISRAKWND [Peptide 15K], for which the “inhibition of MIP-1β binding to CCR5” value on CCR5 is “competitively inhibited chemokine binding”. Further, at CXCR4 [1], the “inhibition of 12G5 antibody binding to CXCR4” value is on record as “inhibited the binding of the 12G5 antibody to CXCR4 in a dose-dependent manner”. In addition, at CXCR4 [1] (peptide at 50 μg/ml versus SDF-1α, FIG. 5A), the “inhibition of 12G5 antibody binding compared with SDF-1α” value was “approached the efficacy of SDF-1α”. Further, the “inhibition of SDF-1α binding to CXCR4” value at CXCR4 [2] is “competitively inhibited chemokine binding”.
